According to patent US20090170872A1, “Compounds and Their Pharmaceutical Use” (Orchid Research Laboratories Limited, priority 2005, published 2009):

Columns and labels:
TNF-α = TNF-α production in LPS-stimulated human whole blood (ELISA); type: cell-based; conditions: LPS 4 hours, read-out: % TNF-α Inhibitory Activity in (hPBMC)
Description: This assay determines the effect of the test compounds on the production of TNF-α in human whole blood. TNF-α assay is carried out as described by Armin Hatzelmann and Christian Schudt (J Pharm Exp Ther 297, 261, 2001). Compounds are tested for their ability to inhibit the activity of TNF-α in human whole blood. The test compounds are pre-incubated for 15 minutes at 37° C. and then stimulated with Lipopolysaccharide (Salmonella abortus equi, 1 µg/ml) for 4 hours at 37° C. in 5% CO2. The levels of TNF-α are estimated using Enzyme linked Immunosorbent assay performed in a 96 well format as per the procedure of the manufacturer (Cayman Chemical, Ann Arbor, USA).

IL-6 = IL-6 production in LPS-stimulated human whole blood (ELISA); type: cell-based; conditions: LPS 4 hours, read-out: % IL-6 Inhibitory Activity (hPBMC)
Description: This assay determines the effect of test compounds on the production of IL-6 from human whole blood. Compounds are tested for their ability to downregulate the production of IL-6 in activated whole blood. The test compounds are pre-incubated for 15 minutes at 37° C. and then stimulated with Lipopolysaccharide (Salmonella abortus equi, 1 µg/ml) for 4 hours at 37° C. in 5% CO2. The levels of IL-6 are estimated using Enzyme linked Immunosorbent assay performed in a 96 well format as per the procedure of the manufacturer. (Cayman Chemical, Ann Arbor, USA).

SMILES | melting point | inhibition at 1 µM (TNF-α) | inhibition at 10 µM (TNF-α) | inhibition at 1 µM (IL-6) | inhibition at 10 µM (IL-6)
CCO/N=C1/c2c(n(C)c3ccccc23)CCC1Cn1ccnc1C (stereo not shown) [Example 3, (4E)-9-methyl-3-[(2-methyl-1H-imidazol-1-yl)methyl]-1,2,3,9-tetrahydro-4H-carbazol-4-one O-ethyloxime] | – | 3.42% | 26.9% | 13.1% | 17.7%
Cc1nccn1CC1CCc2c(c3ccccc3n2C)C1NO (stereo not shown) [Example 64, 4-(hydroxyamino)-9-methyl-3-[(2-methyl-1H-imidazol-1-yl)methyl]-2,3,4,9-tetrahydro-1H-carbazole] | 140 to 144 °C | – | – | – | –
Cc1nccn1CC1CCc2c(c3ccccc3n2C)/C1=N/Oc1ccc(C(F)(F)F)c(Cl)n1 (stereo not shown) [Example 22, (4E)-9-methyl-3-[(2-methyl-1H-imidazol-1-yl)methyl]-1,2,3,9-tetrahydro-4H-carbazol-4-one O-(-chloro-5-trifluoromethyl-pyridin-2-yl)oxime] | – | 53.1% | 48% | – | –
Cc1nccn1CC1CCc2c(c3ccccc3n2C)/C1=N/OC(=O)c1ccc(F)cc1 (stereo not shown) [Example 38, (4E)-9-methyl-3-[(2-methyl-1H-imidazol-1-yl)methyl]-1,2,3,9-tetrahydro-4H-carbazol-4-one O-4-fluorobenzoyloxime] | 192 to 200 °C | – | – | 19.1% | 26%
Cc1nccn1CC1CCc2c(c3ccccc3n2C)/C1=N/OCC(F)(F)F (stereo not shown) [Example 4, (4E)-9-methyl-3-[(2-methyl-1H-imidazol-1-yl)methyl]-1,2,3,9-tetrahydro-4H-carbazol-4-one O-2,2,2-trifluoroethyloxime] | – | 19.8% | 26.1% | – | –
Cc1nccn1CC1CCc2c(c3ccccc3n2C)/C1=N/OCc1ccccc1 (stereo not shown) [Example 2, (4E)-9-methyl-3-[(2-methyl-1H-imidazol-1-yl)methyl]-1,2,3,9-tetrahydro-4H-carbazol-4-one O-benzyloxime] | – | 6.87% | 54.3% | 17.2% | 52.7%
Cc1nccn1CC1CCc2c(c3ccccc3n2C)/C1=N/OCc1cccnc1 (stereo not shown) [Example 10, (4E)-9-methyl-3-[(2-methyl-1H-imidazol-1-yl)methyl]-1,2,3,9-tetrahydro-4H-carbazol-4-one O-(pyidin-3-ylmethyl)oxime] | – | 19.9% | 50.5% | – | –
Cc1nccn1CC1CCc2c(c3ccccc3n2C)/C1=N/OCc1ccncc1 (stereo not shown) [Example 11, (4E)-9-methyl-3-[(2-methyl-1H-imidazol-1-yl)methyl]-1,2,3,9-tetrahydro-4H-carbazol-4-one O-(pyridin-4-ylmethyl)oxime] | – | 11.7% | 47.5% | – | –
Cc1ccc(C(=O)O/N=C2/c3c(n(C)c4ccccc34)CCC2Cn2ccnc2C)cc1 (stereo not shown) [Example 36, (4E)-9-methyl-3-[(2-methyl-1H-imidazol-1-yl)methyl]-1,2,3,9-tetrahydro-4H-carbazol-4-one O-4-methylbenzoyloxime] | 207 to 212 °C | 8.81% | 18.8% | – | –
Cc1nccn1CC1CCc2c(c3ccccc3n2C)/C1=N/OC(=O)c1ccc(Cl)cc1 (stereo not shown) [Example 31, (4E)-9-methyl-3-[(2-methyl-1H-imidazol-1-yl)methyl]-1,2,3,9-tetrahydro-4H-carbazol-4-one O-4-chloro-benzoyloxime] | 206 to 212 °C | 10.8% | 28.5% | – | –
Cc1nccn1CC1CCc2c(c3ccccc3n2C)/C1=N/OCc1ccc([N+](=O)[O-])cc1 (stereo not shown) [Example 15, (4E)-9-methyl-3-[(2-methyl-1H-imidazol-1-yl)methyl]-1,2,3,9-tetrahydro-4H-carbazol-4-one O-(4-nitrobenzyl)oxime] | – | 48.1% | 41.2% | – | –
Cc1cc(C(=O)O/N=C2/c3c(n(C)c4ccccc34)CCC2Cn2ccnc2C)no1 (stereo not shown) [Example 50, (4E)-9-methyl-3-[(2-methyl-1H-imidazol-1-yl)methyl]-1,2,3,9-tetrahydro-4H-carbazol-4-one O-5-methyl-3-isoxazoloyloxime] | 154 to 157 °C | – | – | – | –
CC(=O)O/N=C1/c2c(n(C)c3ccccc23)CCC1Cn1ccnc1C (stereo not shown) [Example 25, (4E)-9-methyl-3-[(2-methyl-1H-imidazol-1-yl)methyl]-1,2,3,9-tetrahydro-4H-carbazol-4-one O-acetyloxime] | – | – | – | 22.4% | 12.5%
COc1ccc(CO/N=C2/c3c(n(C)c4ccccc34)CCC2Cn2ccnc2C)cc1 (stereo not shown) [Example 5, (4E)-9-methyl-3-[(2-methyl-1H-imidazol-1-yl)methyl]-1,2,3,9-tetrahydro-4H-carbazol-4-one O-(4-methoxybenzyl)oxime] | – | 18.4% | 52.4% | – | –
Cc1nccn1CC1CCc2c(c3ccccc3n2C)/C1=N/OC(=O)c1ccc(Br)o1 (stereo not shown) [Example 45, (4E)-9-methyl-3-[(2-methyl-1H-imidazol-1-yl)methyl]-1,2,3,9-tetrahydro-4H-carbazol-4-one O-5-bromo-2-furanoyloxime] | – | 12.3% | 32.1% | – | –
Cc1nccn1CC1CCc2c(c3ccccc3n2C)/C1=N/OC(=O)c1ccccc1 (stereo not shown) [Example 30, (4E)-9-methyl-3-[(2-methyl-1H-imidazol-1-yl)methyl]-1,2,3,9-tetrahydro-4H-carbazol-4-one O-benzoyloxime] | 179 to 185 °C | – | – | – | –

Continued, in another order:

melting point | SMILES | inhibition at 1 µM (TNF-α) | inhibition at 10 µM (TNF-α) | inhibition at 1 µM (IL-6) | inhibition at 10 µM (IL-6)
140 to 144 °C | Cc1nccn1CC1CCc2c(c3ccccc3n2C)/C1=N/OC(=O)c1ccc(Cl)s1 (stereo not shown) [Example 56, (4E)-9-methyl-3-[(2-methyl-1H-imidazol-1-yl)methyl]-1,2,3,9-tetrahydro-4H-carbazol-4-one O-5-chloro-2-thiophenoyloxime] | 26.5% | 54.3% | – | –
171 to 175 °C | Cc1nccn1CC1CCc2c(c3ccccc3n2C)/C1=N/OC(=O)c1ccsc1 (stereo not shown) [Example 53] | – | – | – | –
231 to 233 °C | Cc1nccn1CC1CCc2c(c3ccccc3n2C)/C1=N/O (stereo not shown) [Example 1, (4E)-9-methyl-3-[(2-methyl-1H-imidazol-1-yl)methyl]-1,2,3,9-tetrahydro-4H-carbazol-4-one oxime] | – | – | – | –
200 to 203 °C | Cc1nccn1CC1CCc2c(c3ccccc3n2C)/C1=N/OC(=O)c1ccc(C(F)(F)F)cc1 (stereo not shown) [Example 34] | – | – | – | –
186 to 190 °C | Cc1nccn1CC1CCc2c(c3ccccc3n2C)/C1=N/OC(=O)c1ccc([N+](=O)[O-])o1 (stereo not shown) [Example 47, (4E)-9-methyl-3-[(2-methyl-1H-imidazol-1-yl)methyl]-1,2,3,9-tetrahydro-4H-carbazol-4-one O-5-nitro-2-furanoyloxime] | 18% | 26.5% | – | –
172 to 175 °C | Cc1nccn1CC1CCc2c(c3ccccc3n2C)/C1=N/OC(=O)c1ccccc1F (stereo not shown) [Example 33, (4E)-9-methyl-3-[(2-methyl-1H-imidazol-1-yl)methyl]-1,2,3,9-tetrahydro-4H-carbazol-4-one O-2-fluorobenzoyloxime] | – | – | – | –
158 to 164 °C | Cc1nccn1CC1CCc2c(c3ccccc3n2C)/C1=N/OC(=O)c1ccoc1 (stereo not shown) [Example 63, (4E)-9-methyl-3-[(2-methyl-1H-imidazol-1-yl)methyl]-1,2,3,9-tetrahydro-4H-carbazol-4-one [(furan-3-yl)carbonyl]oxime] | – | – | – | –
148 to 150 °C | Cc1nccn1CC1CCc2c(c3ccccc3n2C)/C1=N/OC(=O)C(F)(F)F (stereo not shown) [Example 26, (4E)-9-methyl-3-[(2-methyl-1H-imidazol-1-yl)methyl]-1,2,3,9-tetrahydro-4H-carbazol-4-one O-trifluoroacetyloxime] | 20.8% | 2.67% | – | –
172 to 174 °C | Cc1nccn1CC1CCc2c(c3ccccc3n2C)/C1=N/OC(=O)c1ccnc(Cl)c1 (stereo not shown) [Example 27, (4E)-9-methyl-3-[(2-methyl-1H-imidazol-1-yl)methyl]-1,2,3,9-tetrahydro-4H-carbazol-4-one O-2-chloropyridinoyloxime] | 3.51% | 9.77% | – | –
200 to 203 °C | COc1ccc(C(=O)O/N=C2/c3c(n(C)c4ccccc34)CCC2Cn2ccnc2C)cc1 (stereo not shown) [Example 35, (4E)-9-methyl-3-[(2-methyl-1H-imidazol-1-yl)methyl]-1,2,3,9-tetrahydro-4H-carbazol-4-one O-4-methoxybenzoyloxime] | – | – | – | –
177 to 180 °C | Cc1ccsc1C(=O)O/N=C1/c2c(n(C)c3ccccc23)CCC1Cn1ccnc1C (stereo not shown) [Example 49, (4E)-9-methyl-3-[(2-methyl-1H-imidazol-1-yl)methyl]-1,2,3,9-tetrahydro-4H-carbazol-4-one O-3-methyl-2-thiophenoyloxime] | – | – | – | –
165 to 170 °C | Cc1ccoc1C(=O)O/N=C1/c2c(n(C)c3ccccc23)CCC1Cn1ccnc1C (stereo not shown) [Example 48, (4E)-9-methyl-3-[(2-methyl-1H-imidazol-1-yl)methyl]-1,2,3,9-tetrahydro-4H-carbazol-4-one O-3-methyl-2-furanoyloxime] | 20.7% | 22.6% | – | –
